# Laboratory results taken from ChEMBL document CHEMBL6134869, “Silaproline-bearing nirmatrelvir derivatives are potent inhibitors of the SARS-CoV-2 main protease highlighting the value of silicon-derivatives in structure-activity-relationship studies” (Eur J Med Chem, 2025).
# Columns and labels:
# Vero C1008 = assay: Cytotoxicity against African green monkey Vero E6 cells; type: toxicity, cell-based; details: chlorocebus sabaeus
# [1] = Inhibition of recombinant SARS-CoV-2 main protease using ALNDFSNSGSDVLYQPPQTSITSAVLQSGFRKMAFPS-NH2 as substrate preincubated for 15 mins followed by substrate addition and measured after 30 mins by Solid phase extraction coupled with MS analysis; parameters: species or system Severe acute respiratory syndrome coronavirus 2
# SARS-CoV-2 = assay: Antiviral activity against SARS-CoV-2 MT007544.1 infected in African green monkey Vero E6 cells pre infected with virus for 1 hrs followed by incubation with cells for 2 hrs and measured after 20 hrs by ELISPOT reader based analysis; type: functional, organism-based; details: Severe acute respiratory syndrome coronavirus 2, MT007544.1, Vero C1008
# [2] = test system: Severe acute respiratory syndrome coronavirus 2; assay: Inhibition of recombinant SARS-CoV-2 main protease assessed as Kinact/Ki using ALNDFSNSGSDVLYQPPQTSITSAVLQSGFRKMAFPS-NH2 as substrate preincubated for 15 mins followed by substrate addition and measured after 30 mins by Solid phase extraction coupled with MS analysis; details: time 45.0 min
SMILES,Activity (Vero C1008),IC50 [1],EC50 (SARS-CoV-2),K [2]
CC(C)(C)[C@H](NC(=O)C(F)(F)F)C(=O)N1C[C@H]2[C@@H]([C@H]1C(=O)N[C@H](C#N)C[C@@H]1CCNC1=O)C2(C)C [NIRMATRELVIR],Non-toxic,–,–,–
COC(=O)N[C@H](C(=O)N1C[Si](C)(C)C[C@H]1C(=O)N[C@H](C#N)C[C@@H]1CCNC1=O)C1CCCCC1,–,113 nM,–,–
COC(=O)N[C@H](C(=O)N1C[Si](C)(C)C[C@H]1C(=O)N[C@H](C#N)C[C@@H]1CCNC1=O)C(C)(C)C,Non-toxic,59 nM,> 50000 nM,–
C#C[C@H](C[C@@H]1CCNC1=O)NC(=O)[C@@H]1C[Si](C)(C)CN1C(=O)[C@@H](NC(=O)OC)C(C)(C)C,–,340 nM,> 50000 nM,3640 M⁻¹ s⁻¹
CC(C)(C)[C@H](NC(=O)C(F)(F)F)C(=O)N1C[Si](C)(C)C[C@H]1C(=O)N[C@H](C#N)C[C@@H]1CCNC1=O,Non-toxic,41 nM,24000 nM,–
COC(=O)N[C@H](C(=O)N1C[Si](C)(C)C[C@H]1C(=O)N[C@H](C#Cc1ccccc1)C[C@@H]1CCNC1=O)C(C)(C)C,–,> 50000 nM,> 50000 nM,–
COC(=O)N[C@H](C(=O)N1CC(C)(C)C[C@H]1C(=O)N[C@H](C#N)C[C@@H]1CCNC1=O)C(C)(C)C,Non-toxic,30 nM,> 50000 nM,–
C#C[C@H](C[C@@H]1CCNC1=O)NC(=O)[C@@H]1CC(C)(C)CN1C(=O)[C@@H](NC(=O)OC)C(C)(C)C,–,320 nM,> 50000 nM,–
C#C[C@H](C[C@@H]1CCNC1=O)NC(=O)[C@@H]1C[Si](C)(C)CN1C(=O)[C@@H](NC(=O)C(F)(F)F)C(C)(C)C,–,280 nM,46000 nM,–
C#C[C@H](C[C@@H]1CCNC1=O)NC(=O)[C@@H]1[C@@H]2[C@H](CN1C(=O)[C@@H](NC(=O)C(F)(F)F)C(C)(C)C)C2(C)C,–,–,–,597 M⁻¹ s⁻¹
